Molecular target: Cathepsin S (Homo sapiens, UniProt P25774)
Assay: D3R2020

Sequence of Cathepsin S (P25774 whole entry): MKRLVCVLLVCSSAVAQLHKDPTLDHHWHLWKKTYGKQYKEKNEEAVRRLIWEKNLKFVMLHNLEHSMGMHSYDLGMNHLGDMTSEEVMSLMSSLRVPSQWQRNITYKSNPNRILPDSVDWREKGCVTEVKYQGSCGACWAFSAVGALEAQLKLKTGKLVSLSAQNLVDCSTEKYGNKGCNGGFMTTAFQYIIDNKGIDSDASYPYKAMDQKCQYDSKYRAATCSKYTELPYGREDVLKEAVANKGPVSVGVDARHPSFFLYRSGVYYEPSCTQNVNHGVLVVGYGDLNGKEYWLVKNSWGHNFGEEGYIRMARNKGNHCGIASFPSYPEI

## Cn1c(=O)n(C2CCN(CCCn3nc(-c4ccc(C(F)(F)F)cc4)c4c3CCN(C(=O)c3c[nH]cn3)C4)CC2)c2ccccc21 [CatS_3]
  IC50: 55 nM

## COc1ccccc1C1CCN(C[C@H](O)Cn2nc(-c3ccc(C(F)(F)F)c(SCCN4CCCCC4)c3)c3c2CCNC3)CC1 [CatS_5]
  IC50: 200 nM

## CC1(C)CCN(C[C@H](O)Cn2nc(-c3ccc(C(F)(F)F)c(CNCc4ccc(F)cc4)c3)c3c2CCN(S(C)(=O)=O)C3)CC1 [CatS_8]
  IC50: 74 nM

## CC(=O)N1CCc2c(c(-c3ccc(C(F)(F)F)c(SCC(=O)N4CCCC4)c3)nn2C[C@H](O)CN2CCC(C(C)(C)O)CC2)C1 [CatS_11]
  IC50: 160 nM

## CC(C)(C)C1CCN(CCCn2nc(-c3ccc(C(F)(F)F)c(CNCc4ccc(F)cc4)c3)c3c2CCN(S(C)(=O)=O)C3)CC1 [CatS_12]
  IC50: 30 nM

## CC1CCN(CCSc2cc(-c3nn(C[C@@H](O)CN4CCC(N5C[C@@H](O)CC5=O)CC4)c4c3CN(S(C)(=O)=O)CC4)ccc2C(F)(F)F)CC1 [CatS_13]
  IC50: 58 nM

## CC(C)=CC(=O)NCc1cc(-c2nn(CCCN(C)C)c3c2CN(C(=O)CC2CCNCC2)CC3)ccc1C(F)(F)F [CatS_16]
  IC50: 260 nM

## CS(=O)(=O)N1CCc2c(c(-c3ccc(Cl)c(C#Cc4ccc(CNCc5ccc(Cl)cc5)cc4)c3)nn2CCCN2CCN(C3CC3)CC2)C1 [CatS_17]
  IC50: 64 nM

## CC(C)=CC(=O)NCc1cc(-c2nn(CCCN3CCOCC3)c3c2CN(C(=O)CC2CCN(C(=O)OC(C)(C)C)CC2)CC3)ccc1C(F)(F)F [CatS_18]
  IC50: 170 nM

## CS(=O)(=O)N1CCc2c(c(-c3ccc(C(F)(F)F)c(CNCc4ccc(F)cc4)c3)nn2CCCN2CCC(C3CCCCC3)CC2)C1 [CatS_26]
  IC50: 15 nM

## O=C(CO)N1CCc2c(c(-c3ccc(Cl)c(C#Cc4ccc(CNCc5ccc(Cl)cc5)cc4)c3)nn2CCCN2CCSCC2)C1 [CatS_40]
  IC50: 95 nM

## CS(=O)(=O)N1CCc2c(c(-c3ccc(Cl)c(C#Cc4ccc(CNCc5ccc(Cl)cc5)cc4)c3)nn2CCCN2CCC(N3CCCC3=O)CC2)C1 [CatS_43]
  IC50: 18 nM

## CC(=O)NC1CCN(CCCn2nc(-c3ccc(Cl)c(C#Cc4ccc5c(c4)CNCC5)c3)c3c2CCN(S(C)(=O)=O)C3)CC1 [CatS_50]
  IC50: 37 nM

## CS(=O)(=O)N1CCc2c(c(-c3ccc(Cl)c(C#Cc4ccc(CNCC(F)(F)F)cc4)c3)nn2CCCN2CCC(N3CCCC3=O)CC2)C1 [CatS_56]
  IC50: 95 nM

## CS(=O)(=O)N1CCc2c(c(-c3ccc(Cl)c(C#Cc4ccc(C=O)cc4)c3)nn2CCCN2CCOCC2)C1 [CatS_64]
  IC50: 110 nM

## COC(=O)[C@@H]1Cc2ccc(C#Cc3cc(-c4nn(CCCN5CCOCC5)c5c4CN(S(C)(=O)=O)CC5)ccc3Cl)cc2CN1 [CatS_71]
  IC50: 65 nM

## CS(=O)(=O)N1CCc2c(c(-c3ccc(Cl)c(C#Cc4ccc(CN[C@H](CO)c5ccccc5)cc4)c3)nn2CCCN2CCN(c3ccccn3)CC2)C1 [CatS_75]
  IC50: 25 nM

## CN(Cc1ccc(Cl)cc1)Cc1ccc(C#Cc2cc(-c3nn(CCCN4CCN(c5ccccc5)CC4)c4c3CN(S(C)(=O)=O)CC4)ccc2Cl)cc1 [CatS_76]
  IC50: 72 nM

## CS(=O)(=O)N1CCc2c(c(-c3ccc(Cl)c(C#Cc4ccc(CN[C@@H]5c6ccccc6C[C@@H]5O)cc4)c3)nn2CCCN2CCN(c3ccccc3)CC2)C1 [CatS_77]
  IC50: 35 nM

## CS(=O)(=O)N1CCc2c(c(-c3ccc(Cl)c(C#Cc4cccc(CNCc5ccc(Cl)cc5)c4)c3)nn2CCCN2CCN(c3ccccc3)CC2)C1 [CatS_78]
  IC50: 65 nM

## NC(=O)N1CCc2c(c(-c3ccc(Cl)c(C#Cc4ccc(CN[C@@H]5CCCc6ccccc65)cc4)c3)nn2CCCN2CCOCC2)C1 [CatS_80]
  IC50: 98 nM

## CCNCc1cc(C#Cc2cc(-c3nn(CCCN4CCCCC4)c4c3CN(C(=O)C(N)=O)CC4)ccc2Cl)ccc1Cl [CatS_82]
  IC50: 15 nM

## NC(=O)N1CCc2c(c(-c3ccc(Cl)c(C#Cc4ccc(Cl)c(CN5CCOCC5)c4)c3)nn2CCCN2CCCCC2)C1 [CatS_84]
  IC50: 35 nM

## CC(C)(O)CNCc1cc(C#Cc2cc(-c3nn(CCCN4CCSCC4)c4c3CN(C(=O)C(N)=O)CC4)ccc2Cl)ccc1Cl [CatS_87]
  IC50: 25 nM

## NC(=O)C(=O)N1CCc2c(c(-c3ccc(Cl)c(C#Cc4ccc(Cl)c(CN[C@@H](CO)c5ccccc5)c4)c3)nn2CCCN2CCSCC2)C1 [CatS_88]
  IC50: 25 nM

## NC(=O)C(=O)N1CCc2c(c(-c3ccc(Cl)c(C#Cc4ccc(Cl)c(C(=O)N[C@@H](CO)c5ccccc5)c4)c3)nn2CCCN2CCSCC2)C1 [CatS_89]
  IC50: 25 nM

## C[C@H]1COCCN1CCCn1nc(-c2ccc(Cl)c(CCc3ccc(CNCc4ccc(Cl)cc4)cc3)c2)c2c1CCN(C(=O)C(N)=O)C2 [CatS_95]
  IC50: 35 nM

## C[C@H]1COCCN1CCCn1nc(-c2ccc(Cl)c(C#Cc3ccc(CNCc4ccc(Cl)cc4)cc3)c2)c2c1CCN(S(C)(=O)=O)C2 [CatS_98]
  IC50: 76 nM

## C[C@H]1COCCN1CCCn1nc(-c2ccc(Cl)c(C#Cc3ccc(C(=O)NCCN4CCOCC4)cc3)c2)c2c1CCN(C(=O)C(N)=O)C2 [CatS_100]
  IC50: 45 nM

## C[C@H]1COCCN1CCCn1nc(-c2ccc(Cl)c(C#Cc3ccc(Cl)c(C(=O)NC[C@@H]4CCCN4)c3)c2)c2c1CCN(C(=O)C(N)=O)C2 [CatS_101]
  IC50: 25 nM

## C[C@H]1COCCN1CCCn1nc(-c2ccc(Cl)c(C#Cc3ccc(Cl)c(CNCc4ccccc4)c3)c2)c2c1CCN(C(=O)C(N)=O)C2 [CatS_102]
  IC50: 15 nM

## C[C@H]1COCCN1CCCn1nc(-c2ccc(Cl)c(C#Cc3ccc(Cl)c(CNCCCO)c3)c2)c2c1CCN(C(N)=O)C2 [CatS_104]
  IC50: 20 nM

## COC(=O)CNCc1cc(C#Cc2cc(-c3nn(CCCN4CCOC[C@@H]4C)c4c3CN(C(N)=O)CC4)ccc2Cl)ccc1Cl [CatS_109]
  IC50: 25 nM

## CNCCCNC(=O)c1ccc(C#Cc2cc(-c3nn(CCCN4CCOC[C@@H]4C)c4c3CN(C(=O)C(N)=O)CC4)ccc2Cl)cc1 [CatS_111]
  IC50: 35 nM

## NC(=O)N1CCc2c(c(-c3ccc(Cl)c(CCc4ccc(Cl)cc4)c3)nn2C[C@@H](O)CN2CCC(C3CCNCC3)CC2)C1 [CatS_117]
  IC50: 15 nM

## CC(C)(C)OC(=O)N1CCC(C2CCN(C[C@H](O)Cn3nc(-c4ccc(Cl)c(CCc5ccc(Cl)cc5)c4)c4c3CCN(C(N)=O)C4)CC2)CC1 [CatS_121]
  IC50: 25 nM

## CS(=O)(=O)N1CCc2c(c(-c3ccc(Cl)c(CCCN4CCOCC4)c3)nn2CCCN2CCC(N3CCCC3=O)CC2)C1 [CatS_123]
  IC50: 1170 nM

## CC(C)CCNCc1cc(-c2nn(CCCN3CCC(N4CCCC4=O)CC3)c3c2CN(S(C)(=O)=O)CC3)ccc1C(F)(F)F [CatS_126]
  IC50: 240 nM

## CS(=O)(=O)N1CCc2c(c(-c3ccc(C(F)(F)F)c(SCC(=O)N4CCC[C@@H]4C(N)=O)c3)nn2CCCN2CCC(N3CCCC3=O)CC2)C1 [CatS_129]
  IC50: 85 nM

## CC(=O)N1CCN(CCCn2nc(-c3ccc(C(F)(F)F)c(SCC(=O)N4CCOCC4)c3)c3c2CCN(S(C)(=O)=O)C3)CC1 [CatS_131]
  IC50: 310 nM

## CC(=O)NC1CCN(CCCn2nc(-c3ccc(C(F)(F)F)c(SCCO)c3)c3c2CCN(S(C)(=O)=O)C3)CC1 [CatS_132]
  IC50: 340 nM
